The results in this text go back to patent US20260184691A1, “INHIBITORS AND DEGRADERS OF PIP4K PROTEIN” (Larkspur Biosciences, Inc., priority 2022, published 2026).

The target of assay [1] is T1, endogenous PIP4K2C C-terminally tagged with HiBiT peptide in MOLT-4 cells (Homo sapiens, UniProt Q8TBX8).
T1 construct: to C-terminally tag endogenous PIP4K2C with HiBiT peptide; host or cells: MOLT-4 (CRISPR-Cas9 knock-in clone)
T1 sequence (Q8TBX8 1-421): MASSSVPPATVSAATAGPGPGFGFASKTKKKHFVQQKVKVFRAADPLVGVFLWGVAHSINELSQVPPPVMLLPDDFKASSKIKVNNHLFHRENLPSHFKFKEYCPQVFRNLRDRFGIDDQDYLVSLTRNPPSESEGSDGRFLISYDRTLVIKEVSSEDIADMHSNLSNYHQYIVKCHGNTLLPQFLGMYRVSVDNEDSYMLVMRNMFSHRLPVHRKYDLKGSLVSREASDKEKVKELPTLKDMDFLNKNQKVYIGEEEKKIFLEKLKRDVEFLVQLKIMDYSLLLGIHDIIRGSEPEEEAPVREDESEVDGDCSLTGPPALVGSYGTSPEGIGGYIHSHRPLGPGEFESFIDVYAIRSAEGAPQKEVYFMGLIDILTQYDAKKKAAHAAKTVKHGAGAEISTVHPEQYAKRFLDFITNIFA
The assay is described as follows: HiBiT PIP4K2C degradation assay in MOLT-4 cells. In kind it is cell-based. The settings on record: 24 hours, 10-point dose response, top concentration 10 micromolar, read-out: HiBIT-degradation MOLT4 PIP4k2C 24 hours DC50. On the procedure: Following clonal selection, genotype was confirmed by Sanger sequencing. […] Nano-Glo® HiBiT Lytic Assay System was purchased from Promega (Madison, WI, Catalog number N3030). Cell culture flasks and 384-well microplates were purchased from Corning (Glendale, AZ).
To study PIP4K2C degradation, 384-well plates were plated with a 10-point dose response curve, 3-fold dilution, in duplicate with a top starting concentration of 10 micromolar. Subsequently 22,500 cells were added to each well and incubated at 37C in 5% CO2 for 24 hours. At the end of the incubation time, cells were treated with the Nano-Glo® HiBiT Lytic Detection System following the manufacturer's instructions. Luminescence was measured with a PHERAstar FSX plate reader (BMG Labtech, Cary, NC). The Levenberg-Marquardt algorithm was used to fit a Hill equation to dose-response data to calculate DC50 values (see Table 6).
Background: The HiBiT peptide binds its large partner to form an active luciferase.

The target in another assay is T2, Human PIP4K2C (Homo sapiens, UniProt Q8TBX8).
T2 construct: purchased Eurofins DiscoverX 87-0007-1094
T2 sequence (Q8TBX8 1-421): T1 sequence (Q8TBX8 1-421)
The assay is described as follows: Enzyme binding assay (KINOMEscan), active site-directed competition binding. Particulars: 11-point dose response, duplicate, top concentration 5 micromolar; read-out: Pip4k2c Kd: IC50. Put shortly: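 Active site-directed competition against immobilized ligand. 11-point dose response in duplicate, top concentration 5 micromolar; IC50 from Hill fit by Levenberg-Marquardt.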

Usually DC50 stands for the midpoint of the concentration-degradation curve. Turning to `Cn1c(=O)n(C2CCC(=O)NC2=O)c2cc(OCC(=O)NCCCCCCCCCC(=O)Nc3cncc(Nc4ncc(Cl)c(-c5cccc(-c6ccccc6)c5)n4)c3)ccc21` (stereo not drawn) [Compound 51, N-(5-((4-([1,1′-biphenyl]-3-yl)-5-chloropyrimidin-2-yl)amino)pyridin-3-yl)-10-(2-((3-(2,6-dioxopiperidin-3-yl)-1-methyl-2-oxo-2,3-dihydro-1H-benzo[d]imidazol-5-yl)oxy)acetamido)decanamide], the DC50 in assay [1] lay within 1000 to 5000 nM.
With `O=C1CCC(N2Cc3cc(OCCCCCCCCCCN4CCC5(CC4)CCN(c4cncc(Nc6ncc(Cl)c(-c7cccc(-c8ccccc8)c7)n6)c4)C5=O)ccc3C2=O)C(=O)N1` (stereo not drawn) [Compound 52, 3-(5-((10-(2-(5-((4-([1,1′-biphenyl]-3-yl)-5-chloropyrimidin-2-yl)amino)pyridin-3-yl)-1-oxo-2,8-diazaspiro[4.5]decan-8-yl)decyl)oxy)-1-oxoisoindolin-2-yl)piperidine-2,6-dione], the DC50 in assay [1] was in the range of 500 to 1000 nM.
For orientation: IC50 means the concentration that gives 50% inhibition. Consider `O=C1CCCN1c1cncc(Nc2ncc(Cl)c(C3CCCN(c4ccccc4)C3)n2)c1` (stereo not drawn) [Compound 141, 1-(5-((5-chloro-4-(1-phenylpiperidin-3-yl)pyrimidin-2-yl)amino)pyridin-3-yl)pyrrolidin-2-one], for which the IC50 at Human PIP4K2C is less than 500 nM.
The same measure, in the same setting: in the case of `O=C1CCCN1c1cncc(Nc2ncc(Cl)c(-c3cccc(Oc4ccccc4)c3)n2)c1` [Compound 142, 1-(5-((5-chloro-4-(3-phenoxyphenyl)pyrimidin-2-yl)amino)pyridin-3-yl)pyrrolidin-2-one] it was less than 500 nM; in that of `O=C1CCCN1c1cncc(Nc2ncc(Cl)c(-c3ccn(-c4ccccc4)n3)n2)c1` [Compound 143, 1-(5-((5-chloro-4-(1-phenyl-1H-pyrazol-3-yl)pyrimidin-2-yl)amino)pyridin-3-yl)pyrrolidine-2-one], less than 500 nM; in that of `O=C1CCCN1c1cncc(Nc2ncc(Cl)c(-c3ccn(C4CCCC4)n3)n2)c1` [Compound 144, 1-(5-((5-chloro-4-(1-cyclopentyl-1H-pyrazol-3-yl)pyrimidin-2-yl)amino)pyridin-3-yl)pyrrolidin-2-one], less than 500 nM.
Take `O=C1CCCN1c1cncc(Nc2ncc(Cl)c(C3CCCN(C4CCC4)C3)n2)c1` (stereo not drawn) [Compound 145, 1-(5-((5-chloro-4-(1-cyclobutylpiperidin-3-yl)pyrimidin-2-yl)amino)pyridin-3-yl)pyrrolidin-2-one]: the IC50 at Human PIP4K2C is less than 500 nM.
In the case of `O=C(C1CCCC1)N1CCCC(c2nc(Nc3cncc(N4CCCC4=O)c3)ncc2Cl)C1` (stereo not drawn) [Compound 146, 1-(5-((5-chloro-4-(1-(cyclopentanecarbonyl)piperidin-3-yl)pyrimidin-2-yl)amino)pyridin-3-yl)pyrrolidin-2-one], on Human PIP4K2C, the IC50 is less than 500 nM.
For the compound `O=C1CCCN1c1ccc(Nc2ncc(F)c(-c3cccc(C4CC4)c3)n2)cn1` [Compound 147, 1-(5-((4-(3-cyclopropylphenyl)-5-fluoropyrimidin-2-yl)amino)pyridin-2-yl)pyrrolidin-2-one], at Human PIP4K2C, the half-maximal inhibitory concentration (IC50) was less than 500 nM.
With `O=C1CCCN1c1cncc(Nc2ncc(F)c(-c3cnn(C4COC4)c3)n2)c1` [Compound 148, 1-(5-((5-fluoro-4-(1-(oxetan-3-yl)-1H-pyrazol-4-yl)pyrimidin-2-yl)amino)pyridin-3-yl)pyrrolidin-2-one], the IC50 at Human PIP4K2C was less than 500 nM.
On the same count and under the same terms, under `O=C1CCCN1c1cncc(Nc2ncc(Cl)c(C3CCCN(C4CC4)C3)n2)c1` (stereo not drawn) [Compound 149, 1-(5-((5-chloro-4-(1-cyclopropylpiperidin-3-yl)pyrimidin-2-yl)amino)pyridin-3-yl)pyrrolidin-2-one] stands less than 500 nM; under `O=C1CCCN1c1ccnc(Nc2ncc(Cl)c(-c3cccc(C4CCCCC4)c3)n2)c1` [Compound 150, 1-(2-((5-chloro-4-(3-cyclohexylphenyl)pyrimidin-2-yl)amino)pyridin-4-yl)pyrrolidin-2-one], 500 to 1000 nM; under `CC(=O)N1CCCC(c2nc(Nc3cncc(N4CCCC4=O)c3)ncc2Cl)C1` (stereo not drawn) [Compound 151, 1-(5-((4-(1-acetylpiperidin-3-yl)-5-chloropyrimidin-2-yl)amino)pyridin-3-yl)pyrrolidine-2-one], less than 500 nM.
For `CC(=O)N1CCC(c2nc(Nc3cncc(N4CCCC4=O)c3)ncc2Cl)CC1` [Compound 152, 1-(5-((4-(1-acetylpiperidin-4-yl)-5-chloropyrimidin-2-yl)amino)pyridin-3-yl)pyrrolidin-2-one], the IC50 on Human PIP4K2C was less than 500 nM.
Turning to `O=C(C1CCCC1)N1CCC(c2nc(Nc3cncc(N4CCCC4=O)c3)ncc2Cl)CC1` [Compound 153, 1-(5-((5-chloro-4-(1-(cyclopentanecarbonyl)piperidin-4-yl)pyrimidin-2-yl)amino)pyridin-3-yl)pyrrolidin-2-one], the IC50 on Human PIP4K2C is less than 500 nM.
The same measure, in the same setting: in the case of `O=C1CCCN1c1cncc(Nc2ncc(F)c(C3CCCN(C4CC4)C3)n2)c1` (stereo not drawn) [Compound 154, 1-(5-((4-(1-cyclopropylpiperidin-3-yl)-5-fluoropyrimidin-2-yl)amino)pyridin-3-yl)pyrrolidine-2-one] it was less than 500 nM.
Take `O=C1CCCN1c1cncc(Nc2ncc(F)c(-c3ccc(=O)n(C4COC4)c3)n2)c1` [Compound 155, 5-(5-fluoro-2-((5-(2-oxopyrrolidin-1-yl)pyridin-3-yl)amino)pyrimidin-4-yl)-1-(oxetan-3-yl)pyridin-2(1H)-one]: the IC50 at Human PIP4K2C was less than 500 nM.
On the same count and under the same terms, in the case of `O=C1CCCN1c1cncc(Nc2ncc(Cl)c(N3CCCC(n4ccccc4=O)C3)n2)c1` (stereo not drawn) [Compound 156, 1-(1-(5-chloro-2-((5-(2-oxopyrrolidin-1-yl)pyridin-3-yl)amino)pyrimidin-4-yl)piperidin-3-yl)pyridin-2(1H)-one] it was less than 500 nM; in that of `O=C1CCCN1c1cncc(Nc2ncc(F)c(-c3ccc(=O)n(C4CCC4)c3)n2)c1` [Compound 157, 1-cyclobutyl-5-(5-fluoro-2-((5-(2-oxopyrrolidin-1-yl)pyridin-3-yl)amino)pyrimidin-4-yl)pyridin-2(1H)-one], less than 500 nM.
`O=C1CCCN1c1cncc(Nc2ncc(F)c(-c3ccc(=O)n(CC4CC4)c3)n2)c1` [Compound 158, 1-(cyclopropylmethyl)-5-(5-fluoro-2-((5-(2-oxopyrrolidin-1-yl)pyridin-3-yl)amino)pyrimidin-4-yl)pyridin-2(1H)-one]: the 50% inhibitory concentration (IC50) at Human PIP4K2C was less than 500 nM.
As to `O=C(c1ccc(F)cc1)N1CCC(c2nc(Nc3cncc(N4CCCC4=O)c3)ncc2Cl)C1` (stereo not drawn) [Compound 159, 1-(5-((5-chloro-4-(1-(4-fluorobenzoyl)pyrrolidin-3-yl)pyrimidin-2-yl)amino)pyridin-3-yl)pyrrolidin-2-one], the IC50 on Human PIP4K2C is less than 500 nM.
For the compound `O=C(C1COC1)N1CCCC(c2nc(Nc3cncc(N4CCCC4=O)c3)ncc2Cl)C1` (stereo not drawn) [Compound 160, 1-(5-((5-chloro-4-(1-(oxetane-3-carbonyl)piperidin-3-yl)pyrimidin-2-yl)amino)pyridin-3-yl)pyrrolidin-2-one], on Human PIP4K2C, the IC50 was less than 500 nM.
On the same count and under the same terms, under `O=C(c1cccc(=O)[nH]1)N1CCCC(c2nc(Nc3cncc(N4CCCC4=O)c3)ncc2Cl)C1` (stereo not drawn) [Compound 161, 6-(3-(5-chloro-2-((5-(2-oxopyrrolidin-1-yl)pyridin-3-yl)amino)pyrimidin-4-yl)piperidine-1-carbonyl)pyridin-2(1H)-one] stands less than 500 nM; under `O=C(c1ccc(F)cc1)N1CCCC(c2nc(Nc3cncc(N4CCCC4=O)c3)ncc2Cl)C1` (stereo not drawn) [Compound 162, 1-(5-((5-chloro-4-(1-(4-fluorobenzoyl)piperidin-3-yl)pyrimidin-2-yl)amino)pyridin-3-yl)pyrrolidin-2-one], less than 500 nM; under `O=C(c1ccc(=O)[nH]c1)N1CCCC(c2nc(Nc3cncc(N4CCCC4=O)c3)ncc2Cl)C1` (stereo not drawn) [Compound 163, 5-[3-[5-chloro-2-[[5-(2-oxopyrrolidin-1-yl)-3-pyridyl]amino]pyrimidin-4-yl]piperidine-1-carbonyl]-1H-pyridin-2-one], less than 500 nM.
With `O=C(c1cc[nH]c(=O)c1)N1CCCC(c2nc(Nc3cncc(N4CCCC4=O)c3)ncc2Cl)C1` (stereo not drawn) [Compound 164, 4-(3-(5-chloro-2-((5-(2-oxopyrrolidin-1-yl)pyridin-3-yl)amino)pyrimidin-4-yl)piperidine-1-carbonyl)pyridin-2(1H)-one], the 50% inhibitory concentration (IC50) at Human PIP4K2C was less than 500 nM.
Take `O=C(c1ccc[nH]c1=O)N1CCCC(c2nc(Nc3cncc(N4CCCC4=O)c3)ncc2Cl)C1` (stereo not drawn) [Compound 165, 3-(3-(5-chloro-2-((5-(2-oxopyrrolidin-1-yl)pyridin-3-yl)amino)pyrimidin-4-yl)piperidine-1-carbonyl)pyridin-2(1H)-one]: the IC50 on Human PIP4K2C is less than 500 nM.
